Measured values reported in patent US20130095174A1, “Compositions and Methods for Transmucosal Delivery of Lofexidine” (US WORLDMEDS, LLC, priority 2008, published 2013).

Test: In vivo absorption of lofexidine from the sublingual cavity (pharmacokinetics, sublingual vs intravenous)
Set-up: species or system rabbit
Method: These experiments determine the bioavailability of lofexidine after transmucosal administration to the sublingual tissue in rabbit and compare it to that after intravenous administration.
The transmucosal absorption of lofexidine was measured using an in vivo technique in rabbits. Following introduction of lidocaine local anesthesia, a catheter was placed in the marginal ear artery of the rabbit for blood sample collection. For intravenous administration, a catheter was placed in the marginal ear vein of the rabbit and lofexidine hydrochloride aqueous solution (0.1 mL) was administered; a sterile drug solution was prepared by filtration (double 0.22 μm filters). A dose of 1 mg/kg lofexidine was injected into the marginal ear vein cannula followed by a 0.1 mL flush with 10% (v/v) heparin/normal saline solution to keep the cannula patent.
For sublingual administration, the lofexidine dose (1 mg/kg, 0.1 mL) of the lofexidine formulation was applied to the sublingual mucosa of the rabbit.
Aliquot parts of 1 mL blood samples were collected at predetermined time points, collected into pre-heparinized tubes and immediately placed on ice. Plasma was separated by centrifugation at 3000 rpm for 10 min, placed in polypropylene tubes, and frozen at −20° C. until the time of analysis.
Bioavailability of sublingually administered drug was calculated by comparing the plasma drug concentration between sublingual and intravenous delivery routes and expressed as a percentage of the intravenous bioavailability.
The formulation instilled into the sublingual area of the rabbits in this experiment had the following composition: • Lofexidine hydrochloride 6000 mg • Isopropanol 2 mL • Phosphate buffer (0.05 M, pH 6)
The lofexidine is dissolved in the isopropanol and the phosphate buffer to make the volume up to 200 mL.
The internal standard (IS) solution was prepared by dissolving d^4-lofexidine in a methanol:water (50:50) mixture to get a (1000 ng/mL) concentration. Plasma samples (50 μL) were spiked with IS solution (10 μL), followed by vortex mixing for 1 minute. The mixture was mixed with acetonitrile (50 μL) to precipitate plasma proteins and allowed to vortex for another minute. After centrifugation for 10 minute at 10,000 rpm, the supernatant was collected into HPLC vials in preparation for analysis by Ultra Performance Liquid Chromatography Mass Spectroscopy (UPLC/MS) system.
All analytical procedures were performed using a Waters Acquity® Ultra UPLC/MS. An Acquity UPLC BEH Shield RP18 (2.1×100 mm) column (Waters) was used to separate the chemical components at 40° C. The flow rate was 0.3 mL/min of two mobile phases, (A) made of 5 mM ammonium acetate (pH 4) and acetonitrile (90:10) and (B) of acetonitrile, 5 mM ammonium acetate (pH 4) (90:10). The mass spectrometer was operated in the positive electrospray ionization (ESI) mode. The capillary voltage and cone voltage were maintained at 0.6 kV and 35 V, respectively. The source temperature and desolvation temperature were set at 100 and 350° C., respectively. Nitrogen was used as both the cone gas (50 L/h) and the desolvation gas (700 L/h). Mass chromatograms and mass spectral data were acquired and processed by MassLynx software (Waters).

[1] = rabbit, sublingual administration, 1 mg/kg single dose, rabbits (n = 3), plasma, average

Question: With CC(Oc1c(Cl)cccc1Cl)C1=NCCN1 (stereo not drawn) [lofexidine, 2-[1-(2,6 dichlorophenoxy)ethyl]-4,5-dihydro-1H-Imidazole] as the compound, how does the bioavailability (rabbit, other: sublingual (transmucosal), sublingual vs intravenous, 1 mg/kg, rabbits, from areas under the plasma concentration versus time curves, read-out: bioavailability (of the administered dose, relative to intravenous)) read?
Answer: ~80%

Question: What about the Tmax (rabbit, sublingual administration, 1 mg/kg single dose, rabbits (n = 3), plasma) of the same compound?
Answer: 10 min

Question: What about the Cmax [1] of the same compound?
Answer: 392 ± 127 ng/mL

Question: What about the half-life [1] of the same compound?
Answer: 75 ± 2.7 min

Question: What about the “time of peak plasma concentration following transmucosal administration” value (sublingual route, 1 mg/kg, rabbits) of the same compound?
Answer: approximately 10 minutes

Question: And the “absorption following transmucosal administration through the sublingual route” value (sublingual, 1 mg/kg, rabbits, comparing AUCs with intravenous)?
Answer: rapidly and completely absorbed
